Data from patent publication US12410161B2, “Tetrahydrobenzo-quinoline sulfonamides derivative compounds” (UCB Biopharma SRL, priority 2019, dated 2025).

Experiment: Thermal stability note in synthesis of Example 2
Type: physicochemical
Details: observation on isolated title compound
Protocol: To a solution of Intermediate 27 (42 mg, 0.068 mmol) in N,N-dimethylformamide (1.5 mL) a solution of formic hydrazide (14 mg, 0.229 mmol) in N,N-dimethylformamide (0.3 mL) followed by mercury(II) chloride (62 mg, 0.229 mmol) were introduced. After 5 minutes stirring at room temperature under an atmosphere of nitrogen, a solution of triethylamine (23 mg, 0.229 mmol) in N,N-dimethylformamide (0.2 mL) was introduced and the reaction warmed to 80° C. for 1.7 hours. After cooling to room temperature, the reaction mixture was diluted with dichloromethane (10 mL), kieselguhr (1.0 g) was introduced, and the suspension stirred for 10 minutes. The suspension was then filtered and the filter-cake washed with dichloromethane (10 mL). Evaporation of the combined filtrates in-vacuo furnished a residue which was purified by low pH preparative liquid chromatography to furnish the title compound (2.3 mg at 88% purity LCMS-UV215, 5% yield) as a colourless solid. LCMS [m+H]^+ 553, RT 2.07 min (Method 3).

## Cc1cc(Nc2nncn2C2CCc3cc4cnc(C5CC5)cc4c(S(=O)(=O)NCC(C)(C)F)c3C2)n(C)n1 (stereo not shown) [Example 2, 3-cyclopropyl-7-[3-[(2,5-dimethylpyrazol-3-yl)amino]-1,2,4-triazol-4-yl]-N-(2-fluoro-2-methylpropyl)-6,7,8,9-tetrahydrobenzo[g]isoquinoline-5-sulfonamide]
  thermal stability: thermally unstable
